According to BindingDB's records for doi:10.1021/jm950720u (Tohoku College of Pharmacy, 1996):

Target: T1, Aromatase (Homo sapiens, UniProt P11511)
T1 sequence (P11511 whole entry): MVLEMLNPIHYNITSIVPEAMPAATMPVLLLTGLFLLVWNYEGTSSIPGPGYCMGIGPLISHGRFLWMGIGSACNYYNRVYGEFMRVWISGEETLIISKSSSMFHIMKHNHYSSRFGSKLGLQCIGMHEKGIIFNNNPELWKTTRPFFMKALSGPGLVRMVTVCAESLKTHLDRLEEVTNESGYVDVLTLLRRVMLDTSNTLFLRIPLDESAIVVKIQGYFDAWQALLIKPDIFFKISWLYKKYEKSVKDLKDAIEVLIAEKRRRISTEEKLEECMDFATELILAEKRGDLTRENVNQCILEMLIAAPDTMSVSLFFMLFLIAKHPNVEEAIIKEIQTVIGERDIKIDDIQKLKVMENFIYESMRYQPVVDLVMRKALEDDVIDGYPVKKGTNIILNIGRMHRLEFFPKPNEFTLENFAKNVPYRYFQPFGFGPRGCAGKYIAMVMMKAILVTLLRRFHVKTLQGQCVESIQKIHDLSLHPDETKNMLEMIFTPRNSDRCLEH
Experiment: Aromatase Assay
Conditions: pH 7.5; 37 °C
Experimental: The enzyme activity was assayed by measuring the 3H-labeled H2O formed from [1beta-3H] Androstenedione during aromatization. After incubation, the reaction was terminated by CHCl3 extraction and centrifugation. Aliquots of the water phase were assayed for the presence of 3H2O by counting using a liquid scintillation spectrometer.

Question: Which results are given for `C[C@]12CCC(=O)C=C1CCC1C2CC[C@]2(C)C(=O)CCC12` (stereo partly drawn) [[1beta-3H] androstenedione]?
Answer: IC50: 300 nM; Ki: 20 nM
